Calls of active or inactive are those of the source. The rule behind the calls is not given here.
Experiments:
HCT-116 [1] = assay: Antiproliferative activity against human HCT116 cells overexpressing FAK assessed as reduction in cell viability after 72 hrs by MTS assay; conditions: HCT-116, 72 h
U-87 MG = assay: Antiproliferative activity against human U87MG cells overexpressing FAK assessed as reduction in cell viability after 72 hrs by MTS assay
HCT-116 [2] = assay: Induction of cell cycle arrest in human HCT116 cells assessed as accumulation at G0/G1 phase at 0.005 uM after 24 hrs by 7-AAD staining-based flow cytometric analysis (reference value: 50.53%); type: functional
HCT-116 [3] = assay: Induction of cell cycle arrest in human HCT116 cells assessed as accumulation at G2/M phase at 0.005 uM after 24 hrs by 7-AAD staining-based flow cytometric analysis (reference value: 12.26%); type: functional
HCT-116 [4] = assay: Induction of cell cycle arrest in human HCT116 cells assessed as accumulation at S phase at 0.005 uM after 24 hrs by 7-AAD staining-based flow cytometric analysis (reference value: 37.20%); type: functional
HCT-116 [5] = assay: Induction of cell cycle arrest in human HCT116 cells assessed as accumulation at G2/M phase at 0.05 uM after 24 hrs by 7-AAD staining-based flow cytometric analysis (reference value: 12.26%); type: functional
MCF7 [6] = assay: Induction of cell cycle arrest in human MCF7 cells assessed as accumulation at S phase at 0.005 uM after 24 hrs by 7-AAD staining-based flow cytometric analysis (reference value: 26.07%); type: functional
MCF7 [7] = assay: Induction of cell cycle arrest in human MCF7 cells assessed as increase in accumulation at G2/M phase after 24 hrs by 7-AAD staining-based flow cytometric analysis; type: functional
MCF7 [8] = assay: Induction of apoptosis in human MCF7 cells assessed as viable cells at 0.005 uM after 24 hrs by Annexin-V and 7-AAD staining based flow cytometric analysis (reference value: 90.2%); type: functional; conditions: MCF7, 24 h, read-out: Activity
MCF7 [9] = assay: Induction of apoptosis in human MCF7 cells assessed as late apoptotic cells at 0.005 uM after 24 hrs by Annexin-V and 7-AAD staining based flow cytometric analysis (reference value: 7.63%); type: functional
MCF7 [10] = assay: Induction of apoptosis in human MCF7 cells assessed as early apoptotic cells at 0.01 uM after 24 hrs by Annexin-V and 7-AAD staining based flow cytometric analysis (reference value: 2.04%); type: functional
MCF7 [11] = assay: Induction of apoptosis in human MCF7 cells assessed as necrotic cells at 0.01 uM after 24 hrs by Annexin-V and 7-AAD staining based flow cytometric analysis (reference value: 0.16%); type: functional
MCF7 [12] = assay: Induction of apoptosis in human MCF7 cells assessed as necrotic cells at 0.05 uM after 24 hrs by Annexin-V and 7-AAD staining based flow cytometric analysis (reference value: 0.16%); type: functional
HCT-116 [13] = assay: Induction of apoptosis in human HCT116 cells assessed as early apoptotic cells at 0.005 uM after 24 hrs by Annexin-V and 7-AAD staining based flow cytometric analysis (reference value: 8.11%); type: functional
HCT-116 [14] = assay: Induction of apoptosis in human HCT116 cells assessed as viable cells at 0.1 uM after 24 hrs by Annexin-V and 7-AAD staining based flow cytometric analysis (reference value: 88.6%); type: functional; conditions: HCT-116, 24 h, read-out: Activity
HCT-116 [15] = assay: Induction of apoptosis in human HCT116 cells assessed as early apoptotic cells at 0.1 uM after 24 hrs by Annexin-V and 7-AAD staining based flow cytometric analysis ((reference value: 8.11%); type: functional
HCT-116 [16] = assay: Induction of apoptosis in human HCT116 cells assessed as late apoptotic cells at 0.1 uM after 24 hrs by Annexin-V and 7-AAD staining based flow cytometric analysis (reference value: 2.63%); type: functional
Homo sapiens [17] = species: Homo sapiens; assay: Induction of apoptosis in human […] after 24 hrs by Annexin-V and 7-AAD staining based flow cytometric analysis; type: functional, cell-based
Homo sapiens [18] = species: Homo sapiens; conditions: 0.05 to 0.1 uM
Description: Antimigratory activity against human MCF7 cells assessed as reduction in cell migration at 0.05 to 0.1 uM incubated for 30 mins and measured after 24 hrs by crystal violet staining based inverted microscopic analysis

- IC50 (HCT-116 [1]): 1 nM
- IC50 (U-87 MG): 60 nM
Structure (SMILES): CNC(=O)c1ccccc1Nc1nc(Nc2ccc(C(=O)N3CCN(C(=S)SCCN(C)C)CC3)cc2)ncc1C(F)(F)F
- Activity (HCT-116 [2]): 39.76%
- Activity (HCT-116 [3]): 18.38%
- Activity (HCT-116 [4]): 41.86%
- Activity (HCT-116 [5]): 87.56%
- Activity (MCF7 [6]): 21.4%
- Activity (MCF7 [7]): Dose-dependent effect
- viability at 0.005 µM (MCF7 [8]): 74.2%
- Activity (MCF7 [9]): 16.5%
- Activity (MCF7 [10]): 6.95%
- Activity (MCF7 [11]): 0.47%
- Activity (MCF7 [12]): 0.56%
- Activity (HCT-116 [13]): 15.9%
- viability at 0.1 µM (HCT-116 [14]): 78.4%
- Activity (HCT-116 [15]): 21.5%
- Activity (HCT-116 [16]): 0.16%
- Activity (Homo sapiens [17]): Dose-dependent effect
- inhibition (Homo sapiens [18]): Active

From ChEMBL document CHEMBL4350989, “Discovery of 2,4-diarylaminopyrimidine derivatives bearing dithiocarbamate moiety as novel FAK inhibitors with antitumor and anti-angiogenesis activities” (Eur J Med Chem, 2019)
